Laboratory results as given in PubChem BioAssay AID1996.
≈ marks a conversion by molar mass, not a printed value.

Conditions: buffer; pH 7.4; 200.0 µM

Structure (SMILES)	solubility kinetic [µg/mL]
CC(=O)NCc1ccc(S(=O)(=O)N2CCCN(C)CC2)cc1.Cl	> 54.3
O=C(NCCCSc1ccccc1)c1cccnc1	> 40.9
COc1ccc(OC)c(NC(=O)N2CCCc3ccccc32)c1	1.7 (≈ 5.44 µM)
CC1CC(CC(=O)NNc2nc(-c3ccccc3)cs2)C(=O)O1 (stereo not drawn)	> 49.7
O=S(=O)(c1cccc2cccnc12)N1CCCc2ccccc21	1.3 (≈ 4.01 µM)
Cn1c(=O)c(Sc2ccccc2)c(O)c2ccccc21	> 42.5
CSc1ncccc1C(=O)NCCc1ccccc1F	> 43.6
Clc1nc(Cl)nc(NCCC2=CCCCC2)n1	> 41
COc1ccc(/C=N/NC(=O)c2cc[n+]([O-])cc2)cc1OC	> 45.2
O=C(O)CN1C(=O)c2ccc(C(=O)c3ccccc3)cc2C1=O	45.8 (≈ 148 µM)
CNS(=O)(=O)c1cccc(C(=O)NCC2CCCCC2)c1	> 46.6
COc1cccc(CNC2CCCCCCC2)c1OC	31.6 (≈ 114 µM)
O=C(NCc1ccc(Cl)cc1)c1cc(=O)[nH]c2ccccc12	1.6 (≈ 5.12 µM)
O=C(O)/C=C/C(=O)NCCc1ccc(Cl)cc1	> 38.1
Cc1nc2ccccc2c(=O)n1-c1ccc(Cl)cc1Cl	> 45.8
CC(=O)NCCC(=O)Nc1nc2c(ccc3ccccc32)s1	1.7 (≈ 5.42 µM)
O=C(c1ccc([N+](=O)[O-])cc1[N+](=O)[O-])n1cnc2ccccc21	22.9 (≈ 73.3 µM)
O=[N+]([O-])c1ccc(SCc2c(F)cccc2Cl)nc1	< 0.3
COc1cccc(NC(=O)/C=C/c2ccco2)c1	> 36.5
COc1cccc(C2Nc3ccccc3NC3=C2C(=O)CC(C)(C)C3)c1 (stereo not drawn)	40.2 (≈ 115 µM)
CC1=Nc2ccc(C)cc2/C1=C/c1c(N)n2oc(C)cc2nc1=O	0.6 (≈ 1.87 µM)
O=[N+]([O-])c1ccc(Cl)cc1N1CCOCC1	> 36.4
O=C(CN1CCN(C(=O)c2ccc(OCc3cn4ccccc4n3)cc2)CC1)Nc1cccc(F)c1	8.6 (≈ 17.6 µM)
Cc1ccc(C(=O)C2CCN(CC(=O)NC3CCCC3)CC2)cc1	> 49.3

Structure (SMILES)	solubility kinetic [µg/mL]
COc1ccccc1S(=O)(=O)N1CCn2cccc2C1C (stereo not drawn)	> 46
C=CCn1c(O)c(C=Nc2ccc(CN3CCCCC3)cc2)c(=O)[nH]c1=S	51.8 (≈ 135 µM)
COc1ccc(N2CCN(C(CNC(=O)C(=O)NCCCO)c3ccco3)CC2)cc1 (stereo not drawn)	> 64.6
COc1cccc(S(=O)(=O)c2nc(C)c3c(n2)CCC3)c1	> 45.7
O=C(NCCCN1CCOCC1)c1cc2ccccc2cc1O	> 47.2
Cc1ccccc1-n1c(=O)n(Cc2ccco2)c(=O)c2[nH]cnc21	> 48.3
COc1cccc(Nc2c(Nc3cccc(OC)c3)c(=O)c2=O)c1	< 0.3
CSc1cccc(N=C2C(=O)Nc3ccccc32)c1	33 (≈ 123 µM)
O=C(c1ccco1)N1CCN(c2ccc([N+](=O)[O-])cn2)CC1	18.3 (≈ 60.5 µM)
Cc1ccccc1NC(=S)N(Cc1cccs1)C1CCCC1	13.3 (≈ 40.2 µM)
Cc1nc2ccc(NC(=O)C3=NN(C)C(=O)CC3)cc2s1	> 45.4
Cc1ccc(/C(N)=N/OC(=O)C(C)c2ccc([N+](=O)[O-])cc2)cc1 (stereo not drawn)	8.3 (≈ 25.4 µM)
O=C(Oc1ccccc1)N1CCCC1	24.8 (≈ 130 µM)
Cc1occc1-c1nnc(SCC(=O)NC2CC2)n1C	> 43.9
Cc1ccc(CNCCc2ccccc2F)s1	33.2 (≈ 133 µM)
COc1cc(C(=O)N=c2sccn2C)c([N+](=O)[O-])cc1OC	47.2 (≈ 146 µM)
Cc1nc(S(=O)(=O)Nc2ccccc2C(=O)NCC2CC2)cn1C	> 52.3
CCOc1ccccc1C(=O)NCC(=O)NCCCSc1ccccc1	2.5 (≈ 6.71 µM)
C=CCNC(=S)/N=c1/ccccn1Cc1ccccc1	39.6 (≈ 140 µM)
COc1ccccc1OCCC(=O)NCc1ccc2c(c1)OCO2	45.1 (≈ 137 µM)
NC(=O)c1ccsc1NC(=O)COC(=O)CCOc1ccccc1	16.9 (≈ 48.5 µM)
O=C(CSc1n[nH]c(=O)n1C1CC1)Nc1ccccc1	> 43.6
O=C(Cc1ccccc1)N1CCC(c2ccccc2)C1 (stereo not drawn)	38.6 (≈ 145 µM)
COCCNC(=O)C(OC(=O)c1ccco1)c1ccccc1F (stereo not drawn)	> 48.2
